The numbers were not newly measured in patent US9750827B2, “Near-infrared dye-conjugated hyaluronic acid derivative and contrast agent for optical imaging including them” (CANON KABUSHIKI KAISHA, priority 2013, dated 2017), which cites them from elsewhere.

The conditions of the series: known in the art.

Turning to `CC1(C)C(/C=C/C=C/C=C/C=C2/N(CCCCS(=O)(=O)[O-])c3ccc4ccccc4c3C2(C)C)=[N+](CCCCS(=O)(=O)[O-])c2ccc3ccccc3c21.[Na+]` [ICG, indocyanine green], the half-life in blood result is recorded as “about several minutes”.
